Each structure is given as a SMILES string.

The record followed here is patent US8481541B2, “Pyrrolopyrazine kinase inhibitors” (Hoffmann-La Roche Inc., priority 2010, dated 2013).

The target in data set [1] is T1, h-jak3(810-1124) (JAK3 recombinant human kinase domain) (Homo sapiens, UniProt P52333).
T1 construct: Ic50 h-jak3(810-1124)-; made in house; host or cells: Sf9 insect cells
The experiment in a line: Determination of IC50 of Janus Kinase (JAK) inhibition, radioactive end-point 33P-ATP kinase assay, JAK3. Type of data set: biochemical. The conditions noted are these: JAK3 kinase domain (810-1124), sf9; no additive; ATP 1.5 uM, peptide 50 uM, 20 minutes, room temperature; read-out: Ic50 h-jak3(810-1124)-sf9-c: no additive. From the text: Determination of IC50 of Janus Kinase (JAK) Inhibition:
Enzymes and peptide substrate used are described below: • JAK1: Recombinant human kinase domain from Invitrogen (Cat # PV4774) • JAK3: Recombinant human kinase domain from Millipore (Cat # 14-629) or prepared. • JAK2: Recombinant human kinase domain from Millipore (Cat # 14-640) Substrate: N-terminally biotinylated 14-mer peptide derived from activation loop of JAK1 with sequence of the peptide substrate: Biotin-[…]
Assay conditions used are described below: • Assay Buffer: JAK Kinase Buffer: 50 mM Hepes [pH 7.2], 10 mM MgCl2, 1 mM DTT, 1 mg/ml BSA. The assay was carried out in this buffer. • Assay Format The kinase activity of all three JAK kinases was measured using a radioactive, end-point assay and with trace amounts of ^33P-ATP. The assays were carried out in 96-well polypropylene plates. Experimental Method:
All concentrations were final in the reaction mixture and all incubations were carried at room temperature. Assay steps are described below: • 1) Compounds were serially diluted in 100% DMSO typically at a 10× starting concentration of 1 mM. Final concentration of DMSO in the reaction was 10%. • 2) Compounds were preincubated with enzyme (0.5 nM JAK3 (commercially available), 0.2 nM JAK3 (prepared), 1 nM JAK2, 5 nM JAK1) for 10 minutes. • 3) Reactions were initiated by the addition of a cocktail of the two substrates (ATP and peptide premixed in the JAK Kinase Buffer). In the JAK2/JAK3 assays, ATP and the peptide were used at concentrations of 1.5 uM and 50 uM, respectively. JAK1 assay was carried out at an ATP concentration of 10 uM and a peptide concentration of 50 uM. • 4) The duration of the assay for JAK2 and JAK3 is 20 minutes. JAK1 assay was carried out for 40 minutes. With all three enzymes, reactions were terminated by the addition of 0.5M EDTA to a final concentration of 100 mM. • 5) 25 ul of terminated reactions were transferred to 150 ul of a 7.5% (v/v) slurry of streptavidin-coated sepharose beads in MgCl2- and CaCl2-free 1× Phosphate Buffered Saline containing 50 mM of EDTA in 96-well, 1.2 um MultiScreen-BV filter plates. • 6) After a 30-minute incubation, the beads were washed under vacuum with the following buffers: • a. 3 to 4 washes with 200 ul of 2M NaCl. • b. 3 to 4 washes with 200 ul of 2M NaCl plus 1% (v/v) phosphoric acid. • c. 1 wash with water. • 7) Washed plates were dried in a 60° C. oven for between 1 to 2 hours. • 8) 70 ul of Microscint 20 scintillation fluid was added to each well of filter plates and after at least 30 minutes of incubation, radioactive counts were measured in a Perkinelmer microplate scintillation counter.

T1 sequence (P52333 810-1124): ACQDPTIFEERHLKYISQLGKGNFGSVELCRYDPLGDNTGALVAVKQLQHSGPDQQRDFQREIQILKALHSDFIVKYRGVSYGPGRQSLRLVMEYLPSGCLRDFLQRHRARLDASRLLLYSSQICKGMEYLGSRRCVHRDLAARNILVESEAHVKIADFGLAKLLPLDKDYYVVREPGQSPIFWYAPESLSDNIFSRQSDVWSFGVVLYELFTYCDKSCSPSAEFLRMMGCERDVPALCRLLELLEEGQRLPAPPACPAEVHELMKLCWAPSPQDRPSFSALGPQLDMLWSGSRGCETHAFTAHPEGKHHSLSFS

For orientation: melting point means the temperature, or range, at which the solid turns liquid. The term IC50 denotes the concentration that inhibits the measured activity by half. As to `NC(=O)CNC(=O)c1c[nH]c2ncc(C3CC3)nc12` [Compound I-1, 2-Cyclopropyl-5H-pyrrolo[2,3-b]pyrazine-7-carboxylic acid carbamoylmethyl-amide], the melting point is 215 to 220 °C. Further, the IC50 in data set [1] was found to be 287 nM.
The matching figures for `CC(CC(=O)NCC(F)(F)F)NC(=O)c1c[nH]c2ncc(C3CC3)nc12` (stereo not shown) [Compound I-2, 2-Cyclopropyl-5H-pyrrolo[2,3-b]pyrazine-7-carboxylic acid [1-methyl-2-(2,2,2-trifluoro-ethylcarbamoyl)-ethyl]-amide]: 230 to 232 °C and 200 nM.
Take `CCNC(=O)CC(C)NC(=O)c1c[nH]c2ncc(C3CC3)nc12` (stereo not shown) [Compound I-3, 2-Cyclopropyl-5H-pyrrolo[2,3-b]pyrazine-7-carboxylic acid (2-ethylcarbamoyl-1-methyl-ethyl)-amide]: the melting point lay in the range of 182 to 184 °C. Further, in data set [1], the IC50 worked out at 909 nM.
The matching figures for `CCCNC(=O)CC(C)NC(=O)c1c[nH]c2ncc(C3CC3)nc12` (stereo not shown) [Compound I-4, 2-Cyclopropyl-5H-pyrrolo[2,3-b]pyrazine-7-carboxylic acid (1-methyl-2-propylcarbamoyl-ethyl)-amide]: 198 to 200 °C and 836 nM.
Molecule `CC(CC(=O)NC1CC1)NC(=O)c1c[nH]c2ncc(C3CC3)nc12` (stereo not shown) [Compound I-5, 2-Cyclopropyl-5H-pyrrolo[2,3-b]pyrazine-7-carboxylic acid (2-cyclopropylcarbamoyl-1-methyl-ethyl)-amide] registered a melting point of 236 to 238 °C. Further, in data set [1], the half-inhibitory concentration (IC50) was determined as 986 nM.
For `C[C@@H](NC(=O)c1c[nH]c2ncc(C3CC3)nc12)C(=O)N(C)C` [Compound I-6, 2-Cyclopropyl-5H-pyrrolo[2,3-b]pyrazine-7-carboxylic acid ((R)-1-dimethylcarbamoyl-ethyl)-amide], the IC50 in data set [1] worked out at 112 nM.
With `CC(C)(C(N)=O)C(NC(=O)c1c[nH]c2ncc(C3CC3)nc12)C1CC1` (stereo not shown) [Compound I-7, 2-Cyclopropyl-5H-pyrrolo[2,3-b]pyrazine-7-carboxylic acid (2-carbamoyl-1-cyclopropyl-2-methyl-propyl)-amide], the melting point fell in the range of 222 to 224 °C. For the same molecule, the half-maximal inhibitory concentration (IC50) in data set [1] was 68 nM.
For `C[C@@H](NC(=O)c1c[nH]c2ncc(C3CC3)nc12)C(=O)N(C)CC#N` [Compound I-8, 2-Cyclopropyl-5H-pyrrolo[2,3-b]pyrazine-7-carboxylic acid [(R)-1-(cyanomethyl-methyl-carbamoyl)-ethyl]-amide], in data set [1], the IC50 was determined as 39.7 nM.
Still for that read-out and setting: for `C[C@H](NC(=O)c1c[nH]c2ncc(C3CC3)nc12)C(=O)N(C)C` [Compound I-9, 2-Cyclopropyl-5H-pyrrolo[2,3-b]pyrazine-7-carboxylic acid ((S)-1-dimethylcarbamoyl-ethyl)-amide] the value was 1240 nM.
Turning to `CC(C)C[C@@H](NC(=O)c1c[nH]c2ncc(C3CC3)nc12)C(=O)N(C)C` [Compound I-10, 2-Cyclopropyl-5H-pyrrolo[2,3-b]pyrazine-7-carboxylic acid ((R)-1-dimethylcarbamoyl-3-methyl-butyl)-amide], the concentration for half-maximal inhibition (IC50) in data set [1] came out at 95 nM.
The same measure, in the same setting: for `O=C(N[C@@H]1CCCNC1=O)c1c[nH]c2ncc(C3CC3)nc12` [Compound I-11, 2-Cyclopropyl-5H-pyrrolo[2,3-b]pyrazine-7-carboxylic acid ((R)-2-oxo-piperidin-3-yl)-amide] the value was 315 nM; for `CN1CCC[C@@H](NC(=O)c2c[nH]c3ncc(C4CC4)nc23)C1=O` [Compound I-12, 2-Cyclopropyl-5H-pyrrolo[2,3-b]pyrazine-7-carboxylic acid ((R)-1-methyl-2-oxo-piperidin-3-yl)-amide], 178 nM.
Take `N#CCCN1CCC[C@@H](NC(=O)c2c[nH]c3ncc(C4CC4)nc23)C1=O` [Compound I-13, 2-Cyclopropyl-5H-pyrrolo[2,3-b]pyrazine-7-carboxylic acid [(R)-1-(2-cyano-ethyl)-2-oxo-piperidin-3-yl]-amide]: the IC50 in data set [1] was found to be 138 nM.
